Laboratory results as given in US20250161338A1, “Compounds for Anti-aging Intervention” (AGENCY FOR SCIENCE, TECHNOLOGY AND RESEARCH, priority 2022, published 2025).

System: prototrophic yeast strain (CEN.PK113-7D)
Experiment: Yeast outgrowth in YPD liquid medium (CLS of aged cells)
Type: cell-based, Saccharomyces cerevisiae
Method in brief: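 Cultures aged at 30 °C in SD medium with double-diluted rapamycin (0–10 nM) or sugars/polyols (0–8 mM). On day 14, 3 µL of culture was transferred into 200 µL YPD and outgrowth read as OD600. Survival expressed relative to day 1 outgrowth (100%).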

For `OC[C@H]1O[C@H](CO)[C@@H](O)[C@@H]1O` [2,5-AM, 2,5-anhydro-D-mannitol], the “antiaging activity in outgrowth assays” value (Day 1, 4, 7 and 10, FIGS. 6 to 8) was “verified by outgrowth assays” and the Outgrowth (concentration tested 300 μg/mL, OD600 nm after 24 h in YPD, age point day 14) was 1.3.
